Laboratory results published in ChEMBL document CHEMBL2146429, “Potassium channel modulators as possible treatment for pain: patent highlight” (ACS Med Chem Lett, 2012).

These molecules were tested against Voltage-gated potassium channel, KQT; KCNQ2(Kv7.2)/KCNQ3(Kv7.3) (Homo sapiens, UniProt O43525+O43526) (assay: Activation of KCNQ2/Q3).
Assay type: protein-complex assay

Chain of Voltage-gated potassium channel, KQT; KCNQ2(Kv7.2)/KCNQ3(Kv7.3) (O43526 whole entry): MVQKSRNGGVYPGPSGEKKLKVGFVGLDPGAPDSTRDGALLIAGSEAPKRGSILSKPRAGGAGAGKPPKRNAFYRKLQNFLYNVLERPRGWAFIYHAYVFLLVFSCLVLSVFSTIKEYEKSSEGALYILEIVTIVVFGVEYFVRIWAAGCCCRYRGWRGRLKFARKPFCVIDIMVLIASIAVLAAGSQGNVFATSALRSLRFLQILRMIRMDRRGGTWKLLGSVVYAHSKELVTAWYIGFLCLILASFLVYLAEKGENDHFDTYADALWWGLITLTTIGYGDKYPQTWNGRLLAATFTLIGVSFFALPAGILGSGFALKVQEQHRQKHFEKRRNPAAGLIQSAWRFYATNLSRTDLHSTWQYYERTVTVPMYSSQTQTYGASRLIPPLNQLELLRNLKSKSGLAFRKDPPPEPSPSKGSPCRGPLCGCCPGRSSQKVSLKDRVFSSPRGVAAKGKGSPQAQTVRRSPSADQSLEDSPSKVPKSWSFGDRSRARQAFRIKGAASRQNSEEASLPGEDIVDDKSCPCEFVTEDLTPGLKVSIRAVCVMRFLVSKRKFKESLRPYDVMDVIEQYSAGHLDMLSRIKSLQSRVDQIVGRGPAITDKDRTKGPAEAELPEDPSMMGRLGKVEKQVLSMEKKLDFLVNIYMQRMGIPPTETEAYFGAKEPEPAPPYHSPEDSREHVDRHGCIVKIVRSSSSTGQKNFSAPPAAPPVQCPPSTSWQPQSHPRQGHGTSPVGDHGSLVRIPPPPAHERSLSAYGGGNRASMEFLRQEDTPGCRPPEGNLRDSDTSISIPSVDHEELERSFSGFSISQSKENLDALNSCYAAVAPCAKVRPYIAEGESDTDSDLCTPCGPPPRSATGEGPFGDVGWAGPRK
Chain of Voltage-gated potassium channel, KQT; KCNQ2(Kv7.2)/KCNQ3(Kv7.3) (O43525 whole entry): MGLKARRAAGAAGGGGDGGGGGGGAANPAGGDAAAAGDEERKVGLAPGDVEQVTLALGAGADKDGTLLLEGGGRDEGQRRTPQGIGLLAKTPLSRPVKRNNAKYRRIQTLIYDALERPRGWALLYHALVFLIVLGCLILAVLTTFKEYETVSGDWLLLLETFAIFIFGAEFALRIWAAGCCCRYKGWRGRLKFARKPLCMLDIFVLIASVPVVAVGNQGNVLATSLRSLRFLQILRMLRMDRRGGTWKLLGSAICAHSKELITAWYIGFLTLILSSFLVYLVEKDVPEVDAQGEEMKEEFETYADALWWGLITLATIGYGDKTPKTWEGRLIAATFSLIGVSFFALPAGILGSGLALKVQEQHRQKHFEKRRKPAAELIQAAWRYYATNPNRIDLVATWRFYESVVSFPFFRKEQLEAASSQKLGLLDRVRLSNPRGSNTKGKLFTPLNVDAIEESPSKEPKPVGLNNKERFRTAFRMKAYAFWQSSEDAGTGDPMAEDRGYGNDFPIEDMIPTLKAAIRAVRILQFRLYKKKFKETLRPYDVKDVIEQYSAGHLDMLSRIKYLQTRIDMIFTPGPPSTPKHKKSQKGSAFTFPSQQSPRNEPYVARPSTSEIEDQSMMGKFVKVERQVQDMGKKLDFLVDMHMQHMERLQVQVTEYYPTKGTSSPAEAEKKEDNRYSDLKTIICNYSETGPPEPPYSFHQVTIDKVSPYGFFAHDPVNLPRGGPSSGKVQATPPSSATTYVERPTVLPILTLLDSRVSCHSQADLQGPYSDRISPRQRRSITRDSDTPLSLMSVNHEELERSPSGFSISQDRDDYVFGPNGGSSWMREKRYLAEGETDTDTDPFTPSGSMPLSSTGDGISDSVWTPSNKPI

Row | EC50 [nM] | SMILES
1 | < 500 | CC(C)(C)CC(=O)Nc1nn2cccnc2c1-c1ccc(OC(F)(F)F)cc1
2 | < 1000 | CC(C)(C)CC(=O)Nc1nn2cccnc2c1-c1ccc(F)cc1
3 | < 100 | Cc1cnc2c(Cc3ccc(F)cc3)c(NC(=O)CC3CCCC3)nn2c1
